Data from US20140328940A1, “MODULATION OF AXON DEGENERATION” (Genentech, Inc., priority 2009, published 2014).
Entries after “also recorded” stand apart in the source; their conditions may differ.

Assays:
[1] = test system: DRG neurons (axon vs. cell body compartment); test: Campenot chamber local axon degeneration (anti-NGF in axon compartment); format: cell-based, mouse
Description: Teflon dividers (Tyler Research) were cleaned by washing in water and wiping them clean of any residual grease. Dividers were then soaked in Nochromix (Godax Laboratories)/sulfuric acid overnight, rinsed five times in distilled and autoclaved water (SQ water), boiled for 30 minutes, and then air-dried before use
Mouse laminin (5 μg/ml in sterile filtered water; Invitrogen) was added to PDL coated 35 mm dishes (BD Biosciences) and they were incubated for 1 hour at 37° C., followed by two rinses in SQ water. The dishes were vacuum-dried and then air-dried in a laminar flow hood for 15 minutes. Prepared dishes were then scored with a pin rake (Tyler Research). […] High vacuum grease (VWR) was added to each Teflon divider under a dissection scope. The laminin coated PDL dishes were inverted and dropped onto the Teflon divider, with additional pressure added by use of a toothpick in the non-track-containing regions. Dishes were incubated for 1 hour at 37° C. Five hundred microliters of NBM+MC (50 ng/ml NGF) solution was added to each of the side compartments, and a grease barrier was added in front of the center cell slot.
Free E13.5 spinal cords were dissected from mouse embryos and placed into NBM+MC (25 ng/ml NGF) solution. DRGs were detached from the spinal cord with a tungsten needle. An NBM+MC-lubricated P200 pipette was used to move DRGs into a 1.5 ml tube. DRGs were pelleted with a tabletop centrifuge for 30 seconds. The supernate was discarded and 0.05% Trypsin/EDTA (cold) was added. The pellet was resolubilized with a pipette and incubated at 37° C. for 15 minutes with constant agitation (650 RPM). The sample was again centrifuged and the supernate discarded. The pellet was resuspended in warm NBM+MC (50 ng/ml NGF) solution and triturated with a flamed glass pipette 20 times, followed by trituration with a fire-bored glass pipette another 20 times. The samples were again centrifuged and the resulting pellets were resuspended in 0.5 ml NBM+MC (50 ng/ml NGF) solution. The cells were diluted to a final concentration of 2.5×10^6 cells/ml. The cell suspensions were loaded into a 1 ml syringe with a 22 gauge needle. The center slot of the Campenot divider was filled using the syringe (to a volume of at least 50 μl). The Campenot chamber was incubated overnight at 37° C. 2.5 ml NGF+MC (50 ng/ml NGF) solution was added to the center compartment and the grease gate was removed. The outer medium (cell body compartment) was replaced after three days with 2.5 ml NBM+MC medium (with 25 ng/ml NGF). After five days in culture, one distal compartment was washed three times with warmed NBM+MC (no NGF) solution. After the third wash, 500 μl NBM+MC (no NGF) solution was added to the axon compartment in combination with either 0.5% DMSO or an inhibitor. The cell body compartment was replaced with 2.5 ml NBM+MC medium (with 25 ng/ml NGF) containing either 0.5% DMSO or inhibitor.
After 28 hours of anti-NGF antibody treatment, 8% PFA/30% sucrose solution (see above) was added directly to the culture medium at a 1:1 dilution and incubated for 30 minutes. The Teflon divider was removed after the first 15 minutes of addition. The system was washed once with 2.5 ml PBS prior to immunostaining. Neurons were blocked in 5% BSA/0.2% triton in PBS for 30 minutes. The primary antibody Tuj1 (Covance) was added to a final dilution of 1:1000 in PBS containing 2% BSA and incubated overnight at 4° C. The dish was washed once with PBS. […] The dish was washed twice with PBS, and a 22×22 mm coverslip (VWR) was added with 350 μl of fluoromount G (Electron Microscopy Sciences). The neurons were visualized by use of a fluorescence microscope.
As described above, E13.5 DRGs were isolated and grown for 5 days in a Campenot chamber.

ErbB kinase [2] = molecular target: ErbB kinase (Homo sapiens, UniProt P04626); details: protein tyrosine phosphorylation, 3T3-Her2 cells; published source; read-out: Cellular IC50; cited from earlier work
[3] = peripheral neuropathy in patients treated with paclitaxel (adverse event analysis); format: in vivo, human; details: combination with paclitaxel; first 400 patients enrolled; placebo+paclitaxel 26.4%; p=0.012 Fisher's exact
Excerpt: Tarceva® (erlotinib) is an EGFR kinase inhibitor. Treatment of patients with paclitaxel and other chemotherapeutic agents is known to lead to peripheral neuropathy (reviewed in Wilkes, Semin. Oncol. Nurs. 23(3):162-173, 2007).

[4] = test system: dorsal spinal cord explants; test: dorsal spinal cord (DSC) explant degeneration; format: cell-based; details: 3.4 μM, 11.1 μM, 33.3 μM, and 100 μM
Description: DSCs grow out axons over a period of days, but if they are not rescued with the addition of a survival factor, they will eventually degenerate.

[5] = toxin-induced degeneration of sympathetic neurons (MTT assay); format: cell-based; details: Sprague-Dawley, rat, primary sympathetic neurons from cervical ganglia, 24 hour camptothecin, read-out: % viability (normalized)
Description: Sympathetic cervical ganglia were dissected from postnatal day 1 Sprague-Dawley rats (Charles River Labs) and collected in a dish containing Ultraculture media (Lonza) with 5% fetal bovine serum (Invitrogen). Ganglia were washed twice with serum-free Ultraculture media, and a final concentration of 0.1% trypsin (Worthington) was added and incubated with the tissue at 37° C. for 30 minutes. One percent DNase (Roche) solution in PBS was added to the ganglia and incubated at room temperature for 1-2 minutes. Ganglia were washed with Ultraculture and allowed to settle to the bottom of the tube. All wash media were removed and 1 mL plating media containing Ultraculture, 5% rat serum, 1% penicillin-streptomycin, 1% glutamax, 7 μM cytosine arabinoside (Sigma), and 50 ng/mL nerve growth factor (2.5S, Cedarlane Laboratory) was added to the tube. Ganglia were dissociated by trituration using a pipet (Rainin). The cell slurry was filtered over a […] cell strainer (Falcon) and cell number was counted. Sympathetic neurons were plated at a density of 5000-7500 cells/well (96-well dish), 200,000 cells/well (6-well plate), or 100,000 cells/well (8-well chamber slide) and grown for 4-5 days in 5% CO2 at 37° C. Every other day neurons were fed with fresh plating media containing 5-10 ng/mL NGF.
NGF withdrawal assays were performed as described in Example 14A. […]

[6] = test system: cerebellar granule neurons (CGNs); test: serum deprivation/KCl reduction degeneration of cerebellar granule neurons; format: cell-based, mouse; details: 5 mM KCl, 24 hours
ErbB kinase [7] = details: read-out: Cellular IC50; heregulin induced tyrosine phosphorylation, MDA-MB-453 cells; published source; cited from earlier work
ERK = ERK activation by EGF in DRG cultures (Western blot); format: cell-based, mouse; details: 100 μg/mL EGF; 30 minutes to 1 hour
Description: (§1) Dorsal Root Ganglia (DRG) immunoblots were prepared as follows. Primary cells used in the experiments were Charles River CD-1 E13 Dorsal Root Ganglia (DRG). The cells were maintained in N3/F12 (+25 ng/ml NGF) medium (Ham's F12 (23 ml), N3 supplement (1 ml), glucose (1 ml of 1 M glucose stock), 25 ng/ml Nerve Growth Factor 2.5 S, mouse (Roche 11362348001) in Ham's F12 (stock: 50 μg/ml-80° C.), which was filter-sterilized prior to use). The experiments also employed Triton lysis buffer (20 mM Tris pH 7.5, 150 mM NaCl, 0.1% Triton-X100, 100× Phosphatase inhibitor cocktail I (added fresh), 100× Phosphatase inhibitor cocktail II (added fresh), 1 tablet/10 ml Protease inhibitor tablet (added fresh)).
DRG explants were prepared on Day 0. […]
Immunoblotting was carried out by aspiration of media with a pipette tip, washing twice with ice-cold sterile PBS, and removal of all PBS using an aspirator with a pipette tip or kimwipes. […] Quantification was carried out by choosing a background method and standard bands that minimize negative/counter-intuitive values: i.e., top/bottom, right/left, user-defined (user-defined). […]
(§2) The goal of these experiments was to see if activation of EGFR by EGF would be sufficient to drive degeneration. […] To ensure that EGF is capable of activating EGFR/ErbBs in the neuronal cultures used in these assays, ERK activation was assessed (ERK is a downstream target of EGFR).

[8] = test system: dorsal root ganglion neurons; test: EGF addition to DRG neurons maintained in NGF: degeneration; format: cell-based, mouse; details: 100 μg/mL EGF
Description: Experiments were carried out to assess the effects of activation of EGFR by ligands, including EGF.
as §1
DRG explants were prepared on Day 0. Embryo dissections were carried out in L15 medium (dissection tools were soaked in 70% isopropanol, and dishes were set up on ice: 10 cm dishes (4 embryos per dish) and one 6 cm dish for spinal cords). E13.5 spinal cords were extracted into DMEM+10% FBS. […]
as §2

DRGs = test: G-protein/GPCR inhibitors in NGF withdrawal-induced degeneration in DRGs; format: cell-based, mouse; details: 0.1 μM, 1 μM, 10 μM or 100 μM (FIGS. 49 and 50)
Description: The assays described herein identified several inhibitors of G-proteins and G-protein coupled receptors (GPCRs) that decrease degeneration in neurons. Experiments were performed in DRGs to verify the role of G-proteins and GPCRs in degeneration pathways. The experimental protocols used in these experiments are the same as those described in Example 14. Pertussis toxin and SCH 202676 were purchased from Tocris Bioscience.

Sequence of ErbB kinase (Homo sapiens, UniProt P04626) (P04626 23-1255): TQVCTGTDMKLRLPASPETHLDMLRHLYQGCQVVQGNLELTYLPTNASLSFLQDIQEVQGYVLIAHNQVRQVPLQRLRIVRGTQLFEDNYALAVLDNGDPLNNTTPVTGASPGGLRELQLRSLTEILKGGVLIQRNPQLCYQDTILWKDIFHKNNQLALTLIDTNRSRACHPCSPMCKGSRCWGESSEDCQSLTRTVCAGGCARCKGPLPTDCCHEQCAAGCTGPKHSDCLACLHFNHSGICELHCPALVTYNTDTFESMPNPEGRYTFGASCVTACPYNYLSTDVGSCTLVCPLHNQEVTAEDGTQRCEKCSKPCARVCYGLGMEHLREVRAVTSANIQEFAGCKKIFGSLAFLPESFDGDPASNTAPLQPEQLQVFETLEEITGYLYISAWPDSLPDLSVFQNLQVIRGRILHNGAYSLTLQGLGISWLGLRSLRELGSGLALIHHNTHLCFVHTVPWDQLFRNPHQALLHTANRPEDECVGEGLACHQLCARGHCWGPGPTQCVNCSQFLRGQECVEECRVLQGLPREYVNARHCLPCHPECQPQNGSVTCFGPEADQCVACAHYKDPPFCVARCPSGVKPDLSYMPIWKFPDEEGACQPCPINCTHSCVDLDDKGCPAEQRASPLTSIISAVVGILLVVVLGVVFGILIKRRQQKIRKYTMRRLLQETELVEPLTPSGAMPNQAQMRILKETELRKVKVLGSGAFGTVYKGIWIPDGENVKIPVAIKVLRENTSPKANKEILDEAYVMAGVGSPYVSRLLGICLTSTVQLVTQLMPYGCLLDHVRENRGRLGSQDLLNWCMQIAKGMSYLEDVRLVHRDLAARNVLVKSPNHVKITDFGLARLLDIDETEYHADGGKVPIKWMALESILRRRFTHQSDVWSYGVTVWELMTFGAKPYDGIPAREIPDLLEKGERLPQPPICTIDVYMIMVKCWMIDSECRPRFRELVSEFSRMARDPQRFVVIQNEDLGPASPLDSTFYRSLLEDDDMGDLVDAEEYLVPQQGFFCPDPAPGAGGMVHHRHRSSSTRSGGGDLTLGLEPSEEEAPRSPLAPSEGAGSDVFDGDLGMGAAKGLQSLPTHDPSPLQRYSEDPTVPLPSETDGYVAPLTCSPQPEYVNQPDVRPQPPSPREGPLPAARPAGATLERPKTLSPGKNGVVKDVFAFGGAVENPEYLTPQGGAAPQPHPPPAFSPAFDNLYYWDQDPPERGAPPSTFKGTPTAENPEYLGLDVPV

C=CC(=O)Nc1ccc2ncnc(Nc3cccc(Br)c3)c2c1 [PD168393]
Axon Compartment (protection of NGF-deprived axons) ([1]; inhibitor 5 μM in axon compartment): Yes (1) | Cell Body Compartment (protection of NGF-deprived axons) ([1]; inhibitor 5 μM in cell body compartment): No (1) | IC50 (ErbB kinase [2]): 100 nM

C#Cc1cccc(Nc2ncnc3cc(OCCOC)c(OCCOC)cc23)c1 [Tarceva, N-(3-ethynylphenyl)-6,7-bis(2-methoxyethoxy)quinazolin-4-amine]
patients with peripheral neuropathy [3]: 16.3 % of patients | degeneration in dorsal spinal cord explants [4]: can delay; also recorded: blocks

CC[C@@]1(O)C(=O)OCc2c1cc1n(c2=O)Cc2cc3ccccc3nc2-1 [camptothecin]
viability at 24 h [5]: 79%

N#C/C(=C\c1ccc(O)c(O)c1)C(=O)NCCCc1ccccc1 [AG555]
protection of cerebellar granule neurons from serum deprivation/KCl reduction ([6]; 1 μM): protect | protection of cerebellar granule neurons from serum deprivation/KCl reduction ([6]; 10 μM): protect | formation of varicosities in locally NGF-deprived axons ([1]; 30 μM SB415, 15 μM Act D in cell body compartment, 10 μM AG555, 30 μM SB239 in axon compartment): fewer varicosities | Axon Compartment (protection of NGF-deprived axons) ([1]; inhibitor 10 μM in axon compartment): did not degenerate; also recorded: protected from local degeneration; also recorded: Yes (4) | Cell Body Compartment (protection of NGF-deprived axons) ([1]; inhibitor 10 μM in cell body compartment): failed to prevent degeneration; also recorded: No (4) | IC50 (ErbB kinase [7]): 5 nM

EGF: ErbB1 ligand added to DRG neurons
ERK activity (phosphorylation of ERK, Western blot) (ERK): increased | induction of axon degeneration [8]: does not cause degeneration

CN=c1nc(-c2ccccc2)n(-c2ccccc2)s1 [SCH 202676]
NGF withdrawal-induced degeneration in DRGs (DRGs): decreases
